Experimental data taken from patent publication US6908935B2, “Calcium receptor modulating agents” (Amgen Inc., priority 2002, dated 2005).

What follows are compounds tested against T1, human parathyroid cell Ca^2+ receptor (hPCaR) (Homo sapiens, UniProt P41180) (assay: [Ca2+]i measurement with fluo-3 in HEK 293 4.0-7 cells stably transfected with hPCaR). Settings: fluo-3 fluorescence (485/530 nm), effect on [Ca^2+]i.
T1 construct: expressed in transfected cells
T1 sequence (P41180 20-1078): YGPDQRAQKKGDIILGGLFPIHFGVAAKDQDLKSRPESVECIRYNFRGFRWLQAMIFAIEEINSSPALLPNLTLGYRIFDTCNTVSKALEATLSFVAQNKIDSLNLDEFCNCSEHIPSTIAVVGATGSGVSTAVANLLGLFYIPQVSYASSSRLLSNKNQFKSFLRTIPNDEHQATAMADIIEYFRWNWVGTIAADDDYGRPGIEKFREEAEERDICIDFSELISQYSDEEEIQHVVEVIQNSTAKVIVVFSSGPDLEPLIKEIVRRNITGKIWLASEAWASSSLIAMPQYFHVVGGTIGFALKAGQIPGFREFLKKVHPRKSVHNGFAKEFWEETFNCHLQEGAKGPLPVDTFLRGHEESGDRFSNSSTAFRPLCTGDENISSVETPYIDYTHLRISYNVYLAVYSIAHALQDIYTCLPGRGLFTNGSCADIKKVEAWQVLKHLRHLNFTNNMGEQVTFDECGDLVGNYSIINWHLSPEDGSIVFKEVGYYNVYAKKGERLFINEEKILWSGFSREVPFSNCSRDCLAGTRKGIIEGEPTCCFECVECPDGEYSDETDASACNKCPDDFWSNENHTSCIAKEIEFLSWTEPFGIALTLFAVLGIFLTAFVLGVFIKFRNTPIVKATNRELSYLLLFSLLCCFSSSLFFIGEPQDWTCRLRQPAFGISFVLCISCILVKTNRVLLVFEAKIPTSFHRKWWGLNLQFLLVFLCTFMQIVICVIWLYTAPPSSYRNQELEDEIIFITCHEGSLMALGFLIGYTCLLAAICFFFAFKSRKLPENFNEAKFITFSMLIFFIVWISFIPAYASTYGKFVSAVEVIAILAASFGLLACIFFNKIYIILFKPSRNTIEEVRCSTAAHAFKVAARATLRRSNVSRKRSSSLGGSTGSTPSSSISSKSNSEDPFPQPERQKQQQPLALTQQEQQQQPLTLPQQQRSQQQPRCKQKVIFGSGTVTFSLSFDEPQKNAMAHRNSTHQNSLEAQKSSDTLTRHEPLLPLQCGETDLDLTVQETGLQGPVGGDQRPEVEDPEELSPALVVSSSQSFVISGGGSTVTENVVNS
Assay type: cell-based
Procedure, shortened: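 Cytosolic [Ca2+] was read as fluo-3 fluorescence (ex 485/em 530 nm) after compound addition to washed cells. Cells were hPCaR-transfected HEK 293 clone 7, dye-loaded 30 min at 37 °C with 2 μM fluo-3 acetoxymethyl ester in HEPES-buffered saline pH 7.45 containing 1 mM CaCl2 and 0.5% BSA.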

SMILES | EC50 [µM]
COc1ccc(CN[C@H](C)c2cccc3ccccc23)cc1-c1ccc(Cl)cc1 [(1R)-N-((4′-chloro-6-(methyloxy)-1,1′-biphenyl-3-yl)methyl)-1-(1-naphthalenyl)ethanamine] | ≤ 10
COc1ccc([C@@H](C)NCc2ccc(OC)c(-c3ccccc3)c2)cc1 [(1R)-N-((6-(methyloxy)-1,1′-biphenyl-3-yl)methyl)-1-(4-(methyloxy)phenyl)ethanamine] | ≤ 10
COc1ccc(CN[C@H](C)c2ccccc2)cc1-c1csc(C)n1 [(1R)-N-((4-(methyloxy)-3-(2-methyl-1,3-thiazol-4-yl)phenyl)methyl)-1-phenylethanamine] | ≤ 10
COc1ccc(CNC(C)c2cccc(N(C)C)c2)cc1-c1ccc(C(F)(F)F)cc1 (stereo not drawn) | ≤ 10
COc1ccc(CN[C@H](C)c2ccccc2)cc1-c1cnc2c(ccn2C)c1 [(1R)-N-((4-(methyloxy)-3-(1-methyl-1H-pyrrolo[2,3-b]pyridin-5-yl)phenyl)methyl)-1-phenylethanamine] | ≤ 10
COc1cccc([C@@H](C)NCc2ccc(OC)c(-c3nnc(C(F)(F)F)o3)c2)c1 [(1R)-1-(3-(methyloxy)phenyl)-N-((4-(methyloxy)-3-(5-(trifluoromethyl)-1,3,4oxadiazol-2-yl)phenyl)methyl)ethanamine] | ≤ 10
COc1ccc(-c2cccc(CN[C@H](C)c3cccc4ccccc34)c2)nn1 [(1R)-N-((3-(6-(methyloxy)-3-pyridazinyl)phenyl)methyl)-1-(1-naphthalenyl)ethanamine] | ≤ 10
COc1cccc(-c2cc(CN[C@H](C)c3cccc4ccccc34)ccc2OC)c1 [(1R)-N-((3′,6-bis(methyloxy)-1,1′-biphenyl-3-yl)methyl)-1-(1-naphthalenyl)ethanamine] | ≤ 10
COc1cccc([C@@H](C)NCc2cccc(-c3cccc(NC(C)=O)c3)c2)c1 [N-(3′-((((1R)-1-(3-(methyloxy)phenyl)ethyl)amino)methyl)-1,1′-biphenyl-3-yl)acetamide] | ≤ 10
COc1ccc(CN[C@H](C)c2cccc3ccccc23)cc1-c1ccc2c(ccn2CC2CC2)c1 [(1R)-N-((3-(1-(cyclopropylmethyl)-1H-indol-5-yl)-4-(methyloxy)phenyl)methyl)-1-(1-naphthalenyl)ethanamine] | ≤ 10
COc1ccc([C@@H](C)NCc2cccc(-c3ccccc3C)c2)cc1 [(1R)-N-((2′-methyl-1,1′-biphenyl-3-yl)methyl)-1-(4-(methyloxy)phenyl)ethanamine] | ≤ 10
C[C@@H](NCc1cccc(-c2ccoc2)c1)c1cccc2ccccc12 [Example 225, (1R)-N-((3-(3-furanyl)phenyl)methyl)-1-(1-naphthalenyl)ethanamine] | ≤ 10
COc1cccc([C@@H](C)NCc2ccc(OC)c(-c3ccccc3)c2)c1 [(1R)-N-((6-(methyloxy)-1,1′-biphenyl-3-yl)methyl)-1-(3-(methyloxy)phenyl)ethanamine] | ≤ 10
COc1ccc(CN[C@H](C)c2cccc3ccccc23)cc1-c1ccc2c(c1)ncn2C [(1R)-N-((3-(1-methyl-1H-benzimidazol-5-yl)-4-(methyloxy)phenyl)methyl)-1-(1-naphthalenyl)ethanamine] | ≤ 10
COc1ccc(CN[C@H](C)c2cccc3ccccc23)cc1N1CCCC1 [(1R)-N-((4-(methyloxy)-3-(1-pyrrolidinyl)phenyl)methyl)-1-(1-naphthalenyl)ethanamine] | ≤ 10
COc1ccc(CN[C@H](C)c2ccccc2)cc1-c1cccnc1OCC(F)(F)F [(1R)-N-((4-(methyloxy)-3-(2-((2,2,2-trifluoroethyl)oxy)-3-pyridinyl)phenyl)methyl)-1-phenylethanamine] | ≤ 10
COc1ccc(CN[C@H](C)c2cccc3ccccc23)cc1-c1ccc(OCC(F)(F)F)nc1 [(1R)-N-((4-(methyloxy)-3-(6-((2,2,2-trifluoroethyl)oxy)-3-pyridinyl)phenyl)methyl)-1-(1-naphthalenyl)ethanamine] | ≤ 10
COc1ccc(CN[C@H](C)c2cccc3ccccc23)cc1-c1cccs1 [(1R)-N-((4-(methyloxy)-3-(2-thienyl)phenyl)methyl)-1-(1-naphthalenyl)ethanamine] | ≤ 10

SMILES | EC50 [µM]
COc1ccc(CN[C@H](C)c2ccccc2)cc1-c1cnccn1 [Example 238, (1R)-N-((4-(methyloxy)-3-(2-pyrazinyl)phenyl)methyl)-1-phenylethanamine] | ≤ 10
COc1cccc([C@@H](C)NCc2ccc(OC)c(-c3ccc4nccnc4c3)c2)c1 [(1R)-1-(3-(methyloxy)phenyl)-N-((4-(methyloxy)-3-(6-quinoxalinyl)phenyl)methyl)ethanamine] | ≤ 10
COc1cccc([C@@H](C)NCc2cccc(-c3cncnc3)c2)c1 [(1R)-1-(3-(methyloxy)phenyl)-N-((3-(5-pyrimidinyl)phenyl)methyl)ethanamine] | ≤ 10
COc1ccnc(-c2cc(CN[C@H](C)c3ccccc3)ccc2OC)c1 [(1R)-N-((4-(methyloxy)-3-(4-(methyloxy)-2-pyridinyl)phenyl)methyl)-1-phenylethanamine] | ≤ 10
COc1cccc([C@@H](C)NCc2cccc(-c3ccc(F)cc3)c2)c1 [(1R)-N-((4′-fluoro-1,1′-biphenyl-3-yl)methyl)-1-(3-(methyloxy)phenyl)ethanamine] | ≤ 10
COc1ccc(CN[C@H](C)c2cccc(Cl)c2)cc1-c1ccccc1 [(1R)-1-(3-chlorophenyl)-N-((6-(methyloxy)-1,1′-biphenyl-3-yl)methyl)ethanamine] | ≤ 10
COCC(=O)N1CCC(c2cc(CN[C@H](C)c3cccc4ccccc34)ccc2OC)CC1 [(1R)-N-((4-(methyloxy)-3-(1-((methyloxy)acetyl)-4-piperidinyl)phenyl)methyl)-1-(1-naphthalenyl)ethanamine] | ≤ 10
COc1ccc(-c2cccc(CN[C@H](C)c3ccccc3)c2)nn1 [(1R)-N-((3-(6-(methyloxy)-3-pyridazinyl)phenyl)methyl)-1-phenylethanamine] | ≤ 10
COc1ccc(CN[C@H](C)c2cccc3ccccc23)cc1C1CCNCC1 [(1R)-N-((4-(methyloxy)-3-(4-piperidinyl)phenyl)methyl)-1-(1-naphthalenyl)ethanamine] | ≤ 10
COc1ccc(CN[C@H](C)c2ccccc2)cc1-c1ccc(C(=O)N(C)C)cc1 [N,N-dimethyl-2′-(methyloxy)-5′-((((1R)-1-phenylethyl)amino)methyl)-1,1′-biphenyl-4-carboxamide] | ≤ 10
Cc1ccc([C@@H](C)NCc2cccc(-c3ccccc3C)c2)cc1 [(1R)-N-((2′-methyl-1,1′-biphenyl-3-yl)methyl)-1-(4-methylphenyl)ethanamine] | ≤ 10
COc1cccc([C@@H](C)NCc2ccc(I)c(-c3ccc(C(F)(F)F)cc3)c2)c1 [(1R)-N-((6-iodo-4′-(trifluoromethyl)-1,1′-biphenyl-3-yl)methyl)-1-(3-(methyloxy)phenyl)ethanamine] | ≤ 10
COc1cccc([C@@H](C)NCc2ccc(OC)c(-c3ncccn3)c2)c1 [(1R)-1-(3-(methyloxy)phenyl)-N-((4-(methyloxy)-3-(2-pyrimidinyl)phenyl)methyl)ethanamine] | ≤ 10
COc1ccc(CN[C@H](C)c2ccccc2)cc1-c1ccc2c(ccn2CC2CC2)c1 [(1R)-N-((3-(1-(cyclopropylmethyl)-1H-indol-5-yl)-4-(methyloxy)phenyl)methyl)-1-phenylethanamine] | ≤ 10
COc1ccc(-c2cccc(CN[C@H](C)c3cccc4ccccc34)c2)cc1 [(1R)-N-((4′-(methyloxy)-1,1′-biphenyl-3-yl)methyl)-1-(1-naphthalenyl)ethanamine] | ≤ 10
COc1ccc(CN[C@H](C)c2cccc3ccccc23)cc1-c1cccc(C(F)(F)F)c1 [(1R)-N-((6-(methyloxy)-3′-(trifluoromethyl)-1,1′-biphenyl-3-yl)methyl)-1-(1-naphthalenyl)ethanamine] | ≤ 10
COc1ccc(CN[C@H](C)c2ccccc2)cc1-c1cccnc1F [(1R)-N-((3-(2-fluoro-3-pyridinyl)-4-(methyloxy)phenyl)methyl)-1-phenylethanamine] | ≤ 10
C[C@@H](NCc1cccc(-c2ccc(NC(=O)CCC(=O)O)nc2)c1)c1ccccc1 [4-oxo-4-((5-(3-((((1R)-1-phenylethyl)amino)methyl)phenyl)-2-pyridinyl)amino)butanoic acid] | ≤ 10
